Results reported in patent publication US5420122A, “3-pyrrolidinylthio-1-azabicyclo-[3.2.0]hept-2-ene-2-carboxylic acid compounds” (Fujisawa Pharmaceutical Co., Ltd., priority 1986, dated 1995).
Converted amounts (≈) assume the structure as drawn.

Tested on: Proteus vulgaris 49
Test: in vitro antimicrobial activity, two-fold agar-plate dilution method (MIC)
Format: cell-based
Conditions: heart infusion agar, 37° C., 20 hours, 10^6 viable cells per ml
Description: in vitro Antimicrobial Activity
in vitro Antimicrobial Activity was determined by the two-fold agar-plate dilution method as described below.
One loopful of an overnight culture of each test strain in Trypticase-soy broth (10^6 viable cells per ml) was streaked on heart infusion agar (HI-agar) containing graded concentrations of the test compound, and the minimal inhibitory concentration (MIC) was expressed in terms of ug/ml after incubation at 37° C. for 20 hours.

- MIC: 0.05 µg/mL (≈ 0.132 µM)
Compound: C[C@@H](O)[C@H]1C(=O)N2C(C(=O)O)=C(S[C@@H]3CN[C@H](c4nc[nH]n4)C3)[C@H](C)[C@H]12 [Test Compound, (4R,5S,6S )-6-[(1R) -1-Hydroxyethyl]-4-methyl-7-oxo-3-[(2S,4S)-2-(1H-1,2,4-triazol-3-yl)pyrrolidin-4-ylthio]-1-azabicyclo [3.2.0]hept-2-ene-2-carboxylic acid]
